Measurements taken from patent US9115134B2, “6-triazolopyridazine sulfanyl benzothiazole derivatives as MET inhibitors” (SANOFI, priority 2007, dated 2015).
Structures can show the parent of a compound that is named as a salt.

Columns and labels:
[1] = system: HCT116 cells, MKN45 cells; experiment: Test C: Measurement of cell proliferation by 14C-thymidine pulse; assay type: cell-based; conditions: 14C-thymidine incorporation, 96 h of treatment; cell line not given
Method: (§1) Stop the reaction with 100 μl of stop solution. Read without delay at […], 0.1 second on Wallac Victor plate reader. • C) Test C: Measurement of cell proliferation by ^14c-thymidine pulse
The cells are seeded into Cytostar 96-well plates in 180 μl for 4 hours at 37° C. and 5% CO2: HCT116 cells at a rate of 2500 cells per well in DMEM medium+10% foetal calf serum+1% L-glutamine and MKN45 cells at a rate of 7500 cells per well in RPMI medium+10% foetal calf serum+1% L-glutamine. After these 4 hours of incubation, the products are added in 10 μl as a 20-fold concentrated solution according to the dilution method mentioned for the ELISA. The products are tested at 10 concentrations in duplicate from 10 000 nM to 0.3 nM with an increment of 3.
After treatment for 72 h, add 10 μl of ^14C-thymidine at 10 μCi/ml to obtain 0.1 μCi per well. The ^14C-thymidine incorporation is measured on a Micro-Beta machine (Perkin-Elmer) after 24 hours of pulse and 96 h of treatment.
All the steps of the assay are automated on BIOMEK 2000 or TECAN stations.

MET [2] = biological target: T1, MET (Homo sapiens, UniProt P08581); experiment: Test B: Inhibition of the autophosphorylation of MET; ELISA technique (pppY1230,1234,1235) in MKN45 cells; assay type: cell-based; set-up: Seed MKN45 cells into 96-well plates (Cell coat BD polylysine) at 20 000 cells/well; endogenous in cells; host or cells: MKN45 cells; conditions: 1 h treatment, PhosphoMET ELISA
Method: Leave to adhere for 24 hours in an incubator.
The cells are treated the day after seeding with the products at 6 concentrations in duplicate for 1 h. At least 3 control wells are treated with the same final amount of DMSO.
Product dilution: Stock at 10 mM in pure DMSO—range from 10 mM to 30 μM with an increment of 3 in pure DMSO—intermediate 1/50 dilutions in culture medium and then removal of 10 μl added directly to the cells (200 μl): final range of 10 000 to 30 nM.
At the end of the incubation, carefully remove the supernatant and rinse with 200 μl of PBS. Next, place 100 μl of lysis buffer directly in the wells on ice and incubate at 4° C. for 30 minutes. Lysis buffer: 10 mM Tris HCl, pH7.4, 100 mM NaCl, 1 mM EDTA, 1 mM EGTA, 1% Triton X-100, 10% glycerol, 0.1% SDS, 0.5% deoxycholate, 20 mM NaF, 2 mM Na3VO4, 1 mM PMSF and cocktail of antiproteases.
The 100 μl of lysates are transferred into a V-bottomed polypropylene plate and the ELISA is performed immediately, or the plate is frozen at −80° C. • b) PhosphoMET ELISA BioSource Kit KH00281
Into each well of the kit plate, add 70 μl of kit dilution buffer+30 μL of cell lysate or 30 μl of lysis buffer for the blanks. Incubate for 2 h with gentle agitation at ambient temperature.
Rinse the wells 4 times with 400 μl of kit washing buffer. Incubate with 100 μl of anti-phospho MET antibody for 1 hour at ambient temperature.
Rinse the wells 4 times with 400 μl of kit washing buffer. Incubate with 100 μl of anti-rabbit HRP antibody for 30 minutes at ambient temperature (except for the wells of chromogen alone).
Rinse the wells 4 times with 400 μl of kit washing buffer. Introduce 100 μL of chromogen and incubate for 30 minutes in the dark at ambient temperature.
as §1
Target sequence in this assay (P08581 25-1390): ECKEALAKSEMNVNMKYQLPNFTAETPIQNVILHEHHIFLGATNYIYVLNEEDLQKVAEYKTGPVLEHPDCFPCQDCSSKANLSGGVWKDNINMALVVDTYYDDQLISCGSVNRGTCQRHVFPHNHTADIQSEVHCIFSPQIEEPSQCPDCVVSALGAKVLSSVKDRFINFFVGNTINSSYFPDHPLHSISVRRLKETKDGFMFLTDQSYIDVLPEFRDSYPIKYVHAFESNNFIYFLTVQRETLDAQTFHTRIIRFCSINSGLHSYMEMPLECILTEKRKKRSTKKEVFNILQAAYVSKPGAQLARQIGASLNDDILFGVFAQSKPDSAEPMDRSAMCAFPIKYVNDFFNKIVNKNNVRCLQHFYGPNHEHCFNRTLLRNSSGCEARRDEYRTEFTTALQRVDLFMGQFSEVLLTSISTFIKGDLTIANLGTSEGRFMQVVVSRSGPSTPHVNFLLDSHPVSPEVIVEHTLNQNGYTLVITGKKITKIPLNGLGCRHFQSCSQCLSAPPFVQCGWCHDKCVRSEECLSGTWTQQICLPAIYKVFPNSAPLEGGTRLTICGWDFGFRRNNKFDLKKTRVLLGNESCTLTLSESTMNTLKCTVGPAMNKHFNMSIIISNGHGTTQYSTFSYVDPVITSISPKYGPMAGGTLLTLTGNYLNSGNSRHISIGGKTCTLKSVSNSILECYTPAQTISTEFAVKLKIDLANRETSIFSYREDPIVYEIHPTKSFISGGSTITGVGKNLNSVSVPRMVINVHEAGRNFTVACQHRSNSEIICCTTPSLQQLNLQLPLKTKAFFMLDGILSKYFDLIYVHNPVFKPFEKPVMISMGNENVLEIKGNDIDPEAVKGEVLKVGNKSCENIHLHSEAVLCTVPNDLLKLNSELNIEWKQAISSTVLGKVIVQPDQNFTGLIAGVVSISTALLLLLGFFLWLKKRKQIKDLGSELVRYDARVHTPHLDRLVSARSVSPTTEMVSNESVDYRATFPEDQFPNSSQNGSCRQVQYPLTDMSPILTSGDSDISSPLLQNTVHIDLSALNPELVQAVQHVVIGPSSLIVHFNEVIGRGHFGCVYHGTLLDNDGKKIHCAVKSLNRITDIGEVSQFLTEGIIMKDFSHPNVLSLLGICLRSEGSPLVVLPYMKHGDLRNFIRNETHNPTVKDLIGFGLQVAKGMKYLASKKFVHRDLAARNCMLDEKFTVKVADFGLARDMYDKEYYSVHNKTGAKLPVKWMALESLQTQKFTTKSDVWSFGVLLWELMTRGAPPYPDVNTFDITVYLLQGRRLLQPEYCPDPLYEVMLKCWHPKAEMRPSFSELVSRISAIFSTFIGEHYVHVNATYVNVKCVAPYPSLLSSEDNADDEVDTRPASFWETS

MET [3] = biological target: T1, MET; experiment: Test A: HTRF MET assay in 96-well format; assay type: biochemical; set-up: The His-Tev-MET (956-1390) recombinant DNA in pFastBac (Invitrogen) is transfected into insect cells; His tag (N, cleaved yes); TEV cleavage site (N); made in house; host or cells: SF21 insect cells (baculovirus, pFastBac); conditions: MET 5 nM, 10 μM ATP
Method: I) Expression and Purification of MET, Cytoplasmic Domain
The His-Tev-MET (956-1390) recombinant DNA in pFastBac (Invitrogen) is transfected into insect cells, and after several viral amplification steps, the final baculovirus stock is tested for the expression of the protein of interest.
After infection for 72 h at 27° C. with the recombinant virus, the SF21 cell cultures are harvested by centrifugation and the cell pellets are stored at −80° C.
The cell pellets are resuspended in lysis buffer (buffer A [50 mM HEPES, pH 7.5, 250 mM NaCl, 10% glycerol, 1 mM TECP]; +cocktail of protease inhibitors, Roche Diagnostics, without EDTA, ref 1873580), stirred at 4° C. until the mixture is homogeneous and then lyzed mechanically using a “Dounce” type apparatus.
After centrifugation, the lysis supernatant is incubated for 2 h at 4° C. with nickel chelate resin (His-Trap 6 Fast Flow™, GE HealthCare). After washing with 20 volumes of buffer A, the suspension is packed into a column, and the proteins are eluted with a gradient of buffer B ([…]+290 mM imidazole).
The fractions containing the protein of interest for the purpose of electrophoretic analysis (SDS PAGE) are combined, concentrated by ultrafiltration (10 kDa cut-off) and injected onto an exclusion chromatography column (Superdex™ 200, GE HealthCare) equilibrated in buffer A.
After enzymatic cleavage of the histidine tag, the protein is reinjected onto a new IMAC nickel chelate chromatography column (His-Trap 6 Fast Flow™, GE HealthCare) equilibrated in buffer A. The fractions eluted with a gradient of buffer B and containing the protein of interest after electrophoresis (SDS PAGE) are finally combined and conserved at −80° C.
For the production of autophosphorylated protein, the previous fractions are incubated for 1 h at ambient temperature after the addition of 2 mM ATP, 2 mM MgCl2, and 4 mM Na3VO4. After the reaction has been stopped with 5 mM of EDTA, the reaction mixture is injected onto a HiPrep desalifying column (GE HealthCare) preequilibrated in buffer A+4 mM Na3VO4, and the fractions containing the protein of interest (SDS PAGE analysis) are combined and stored at −80° C. The degree of phosphorylation is verified by mass spectrometry (LC-MS) and by peptide mapping.
• A) Test A: HTRF MET assay in 96-well format
MET at a final concentration of 5 nM is incubated in a final volume of 50 μl of enzymatic reaction in the presence of the test molecule (for a final concentration range of from 0.17 nM to 10 μM, 3% DMSO final concentration) in 10 mM MOPS buffer, pH 7.4, 1 mM DTT, 0.01% Tween 20. The reaction is initiated with the substrate solution to obtain final concentrations of 1 μg/ml poly-(GAT), 10 μM ATP and 5 mM MgCl2. After incubation for 10 min at ambient temperature, the reaction is stopped with a 30 μl mix so as to obtain a final solution of 50 mM Hepes pH 7.5, 500 mM potassium fluoride, 0.1% BSA and 133 mM EDTA in the presence of 80 ng of streptavidin 61SAXLB Cis-Bio Int. and 18 ng of anti-phosphotyrosine Mab PT66-Europium Cryptate per well. After incubation for 2 hours at ambient temperature, the reading is taken at 2 wavelengths, 620 nm and 665 nm, on a reader for the TRACE/HTRF technique and the % inhibition is calculated from the 665/620 ratios.
Target sequence in this assay (P08581 956-1390): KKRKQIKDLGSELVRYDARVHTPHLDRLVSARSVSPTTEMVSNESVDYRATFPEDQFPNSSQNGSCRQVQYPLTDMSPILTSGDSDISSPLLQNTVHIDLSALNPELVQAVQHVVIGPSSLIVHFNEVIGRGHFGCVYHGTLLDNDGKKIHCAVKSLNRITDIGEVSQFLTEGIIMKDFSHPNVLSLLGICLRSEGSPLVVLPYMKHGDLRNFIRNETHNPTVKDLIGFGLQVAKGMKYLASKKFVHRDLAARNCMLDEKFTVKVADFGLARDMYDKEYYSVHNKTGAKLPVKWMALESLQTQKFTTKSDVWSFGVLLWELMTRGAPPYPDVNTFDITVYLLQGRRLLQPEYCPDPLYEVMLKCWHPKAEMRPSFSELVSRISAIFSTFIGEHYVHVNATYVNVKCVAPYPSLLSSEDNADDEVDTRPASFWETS

IC50 [1] [nM] | IC50 (MET [2]) [nM] | IC50 (MET [3]) [nM] | SMILES
< 1000 | < 100 | < 100 | COc1ccc2nnc(Sc3ccc4nc(NC(=O)C5CC5)sc4c3)n2n1 [Example 36, N-{6-[(6-Methoxy[1,2,4]triazolo[4,3-b]pyridazin-3-yl)sulphanyl]-1,3-benzothiazol-2-yl}cyclopropanecarboxamide]
< 1000 | < 100 | < 100 | CC(=O)Nc1nc2ccc(Sc3nnc4ccc(-c5ccc(F)cc5)nn34)cc2s1 [Example 41, N-(6-{[6-(4-Fluorophenyl)[1,2,4]triazolo[4,3-b]pyridazin-3-yl]sulphanyl}-1,3-benzothiazol-2-yl)acetamide]
< 1000 | 100 to 500 | < 100 | CCOc1ccc2nnc(Sc3ccc4nc(N)sc4c3)n2n1 [Example 50, 6-[(6-Ethoxy[1,2,4]triazolo[4,3-b]pyridazin-3-yl)sulphanyl]-1,3-benzothiazol-2-amine]
< 1000 | 100 to 500 | < 100 | Nc1nc2ccc(Sc3nnc4ccc(-c5ccc(F)cc5)nn34)cc2[nH]1 [Example 7, 6-{[6-(4-Fluorophenyl)[1,2,4]triazolo[4,3-b]pyridazin-3-yl]sulphanyl}-1H-benzimidazol-2-amine]
< 1000 | < 100 | < 100 | O=C(NCCN1CCOCC1)Nc1nc2ccc(Sc3nnc4ccc(-c5ccc(F)cc5)nn34)cc2s1 [Example 9, 1-(6-{[6-(4-Fluorophenyl)[1,2,4]triazolo[4,3-b]pyridazin-3-yl]sulphanyl}-1,3-benzothiazol-2-yl)-3-(2-morpholin-4-ylethyl)urea]
< 1000 | < 100 | < 100 | CN1CCN(c2ccc3nnc(Sc4ccc5nc(NC(=O)OC(C)(C)C)sc5c4)n3n2)CC1 [Example 19, 1,1-Dimethylethyl (6-{[6-(4-methylpiperazin-1-yl)[1,2,4]triazolo[4,3-b]pyridazin-3-yl]sulphanyl}-1,3-benzothiazol-2-yl)carbamate hydrochloride]
< 1000 | < 100 | < 100 | Nc1nc2ccc(Sc3nnc4ccc(-c5ccc(F)cc5)nn34)cc2s1 [Example 3, 6-{[6-(4-Fluorophenyl)[1,2,4]triazolo[4,3-b]pyridazin-3-yl]sulphanyl}-1,3-benzothiazol-2-amine]
< 1000 | < 100 | < 100 | Fc1ccc(-c2ccc3nnc(Sc4ccc5nc(NCCN6CCOCC6)sc5c4)n3n2)cc1 [Example 30, 6-{[6-(4-Fluorophenyl)[1,2,4]triazolo[4,3-b]pyridazin-3-yl]sulphanyl}-N-[2-(morpholin-4-yl)ethyl]-1,3-benzothiazol-2-amine]
< 1000 | 100 to 500 | < 100 | CC(=O)Nc1nc2ccc(Sc3nnc4ccc(N5CCN(C)CC5)nn34)cc2s1 [Example 25, N-(6-{[6-(4-Methylpiperazin-1-yl)[1,2,4]triazolo[4,3-b]pyridazin-3-yl]sulphanyl}-1,3-benzothiazol-2-yl)acetamide]
< 1000 | < 100 | < 100 | O=C(CCCN1CCOCC1)Nc1nc2ccc(Sc3nnc4ccc(-c5ccc(F)cc5)nn34)cc2s1 [Example 15, N-(6-{[6-(4-Fluorophenyl)[1,2,4]triazolo[4,3-b]pyridazin-3-yl]sulphanyl}-1,3-benzothiazol-2-yl)-4-morpholin-4-ylbutanamide]
< 1000 | < 100 | < 100 | CC(=O)Nc1nc2ccc(Sc3nnc4ccc(-c5cccc(F)c5)nn34)cc2s1 [Example 65, N-(6-{[6-(3-Fluorophenyl)[1,2,4]triazolo[4,3-b]pyridazin-3-yl]sulphanyl}-1,3-benzothiazol-2-yl)acetamide]
< 1000 | < 100 | < 100 | O=C(NCCN1CCOCC1)Nc1nc2ccc(Sc3nnc4ccc(N5CCOCC5)nn34)cc2s1 [Example 28, 1-[2-(Morpholin-4-yl)ethyl]-3-(6-{[6-(morpholin-4-yl)[1,2,4]triazolo[4,3-b]-pyridazin-3-yl]sulphanyl}-1,3-benzothiazol-2-yl)urea]
< 1000 | < 100 | < 100 | O=C(NCCN1CCOCC1)Nc1nc2ccc(Sc3nnc4n3N=C(c3ccc(F)cc3)CC4)cc2s1 [Example 44, 1-(6-{[6-(4-Fluorophenyl)-7,8-dihydro-[1,2,4]triazolo[4,3-b]pyridazin-3-yl]sulphanyl}-1,3-benzothiazol-2-yl)-3-[2-(morpholin-4-yl)ethyl]urea]
< 1000 | < 100 | < 100 | Nc1nc2ccc(Sc3nnc4ccc(-c5cccc(F)c5)nn34)cc2s1 [Example 53, 6-{[6-(3-Fluorophenyl)[1,2,4]triazolo[4,3-b]pyridazin-3-yl]sulphanyl}-1,3-benzothiazol-2-amine]
